One test deals with T1, human H3 receptor (Homo sapiens, UniProt Q9Y5N1).
T1 construct: expressed in transfected cells
Nature of the test: Human H3 radioligand binding ([3H]-N-alpha-methylhistamine, CHO cell membranes, SPA). The following applies: Table A, binding constant as letter class. The protocol:
(§1) Cell pellets were resuspended in 5 mM Tris-HCl, pH 7.5 with […] and a cocktail of protease inhibitors (Complete Protease Inhibition Tablets, Roche Diagnostics). Cells were disrupted using a polytron cell homogenizer and the suspension was centrifuged at 1000×g for 10 minutes at 4° C. The pellet was discarded and the supernatant centrifuged at 40,000×g for 30 min at 4° C. This membrane pellet was washed in membrane buffer containing 50 mM Tris-HCl, pH 7.5 with 0.6 mM EDTA, 5 mM MgCl2 and protease inhibitors, recentrifuged as above and the final pellet resuspended in membrane buffer plus 250 mM sucrose and frozen at −80° C.
(§2) Membranes were resuspended in 50 mM Tris HCl (pH 7.4), 5 mM MgCl2, 0.1% BSA. The membrane suspensions (10 μg protein per well) were incubated in a 96 well microtiter plate with [^3H]-N-alpha-methylhistamine (approximately 1 nM final concentration), test compounds at various concentrations (0.01 nM-30 μM) and scintillation proximity beads (Perkin Elmer, FlashBlueGPCR Scintillating Beads) in a final volume of 80 μl for 4 hours at room temperature, protected from light. Non-specific binding was determined in the presence of 10 μM clobenpropit. Radioligand bound to receptor, and therefore in proximity to the scintillation beads, was measured using a MicroBeta scintillation counter.

The target in test [1] is T2, rat histamine H3 receptor (Rattus norvegicus, UniProt Q9QYN8).
T2 construct: encoding the entire 445-amino-acid rat histamine H3 receptor; expressed in transfected cells
T2 sequence (Q9QYN8 whole entry): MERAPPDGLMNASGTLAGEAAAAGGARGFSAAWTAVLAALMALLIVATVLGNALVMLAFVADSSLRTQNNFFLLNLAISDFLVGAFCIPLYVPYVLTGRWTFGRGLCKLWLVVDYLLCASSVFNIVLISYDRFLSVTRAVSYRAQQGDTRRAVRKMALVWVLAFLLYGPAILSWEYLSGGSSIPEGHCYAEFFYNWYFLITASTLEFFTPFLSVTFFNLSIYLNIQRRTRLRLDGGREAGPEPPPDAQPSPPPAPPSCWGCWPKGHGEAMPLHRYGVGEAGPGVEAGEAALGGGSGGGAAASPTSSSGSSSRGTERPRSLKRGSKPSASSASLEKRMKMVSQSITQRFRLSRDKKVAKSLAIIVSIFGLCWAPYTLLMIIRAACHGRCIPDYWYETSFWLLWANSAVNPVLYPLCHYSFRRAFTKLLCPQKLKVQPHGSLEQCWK
In words: Rat H3 radioligand binding ([3H]-N-alpha-methylhistamine, CHO-A3 cell membranes, SPA). The following applies: Table A, binding constant as letter class; read-out: Rat H3 Ki. The protocol:
as §1, with “This was engineered into the pIRES-neo3 mammalian expression vector, which was stably transfected into the CHO-A3 cell line (Euroscreen, Belgium), followed by clonal selection by limiting dilution. Cells were harvested and cell pellets were frozen (−80° C.). Cell pellets” for “Cell pellets”
as §2

Usually Ki stands for a dissociation constant, usually derived from enzyme kinetics or from competition with a known ligand.

T1 sequence (Q9Y5N1 whole entry): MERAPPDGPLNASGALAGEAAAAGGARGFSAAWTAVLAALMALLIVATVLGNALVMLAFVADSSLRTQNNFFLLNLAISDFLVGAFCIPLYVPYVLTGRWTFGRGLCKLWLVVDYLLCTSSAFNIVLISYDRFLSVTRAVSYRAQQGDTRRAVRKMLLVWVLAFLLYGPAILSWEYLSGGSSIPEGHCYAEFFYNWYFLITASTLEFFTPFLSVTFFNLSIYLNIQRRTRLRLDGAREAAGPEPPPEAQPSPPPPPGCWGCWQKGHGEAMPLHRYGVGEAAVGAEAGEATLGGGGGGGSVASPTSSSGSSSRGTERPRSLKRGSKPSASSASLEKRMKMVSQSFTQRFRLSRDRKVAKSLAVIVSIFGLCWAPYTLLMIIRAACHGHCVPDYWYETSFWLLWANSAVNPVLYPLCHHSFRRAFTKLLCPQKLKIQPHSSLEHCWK

For `C[C@@H]1CCCN1CCCOc1ccc(-c2ccc(=O)n(Cc3ccccc3)n2)cc1` [Example 18, 2-Benzyl-6-{4-[3-((R)-2-methyl-pyrrolidin-1-yl)-propoxy]-phenyl}-2H-pyridazin-3-one], the Ki (on human H3 receptor; in test [1]) was 0.0001 to 0.1 µM each time.

In the case of `C[C@@H]1CCCN1CCCOc1ccc(C2=NN(c3ccccc3)C(=O)CC2)cc1` [Example 19], the Ki (on human H3 receptor; in test [1]) was 0.0001 to 0.1 µM in each case.

Take `C[C@@H]1CCCN1CCCOc1ccc(-c2ccc(=O)n(-c3ccccc3)n2)cc1` [Example 20, 6-{4-[3-((R)-2-Methyl-pyrrolidin-1-yl)-propoxy]-phenyl}-2-phenyl-2H-pyridazin-3-one]: the inhibitory constant (Ki) (at human H3 receptor; in test [1]) was 0.0001 to 0.1 µM in each case.

As to `C[C@@H]1CCCN1CCCOc1ccc(-n2ncccc2=O)cc1` [Example 21, 2-{4-[3-((R)-2-Methyl-pyrrolidin-1-yl)-propoxy]-phenyl}-2H-pyridazin-3-one], the figures for the Ki (on human H3 receptor; in test [1]) were 0.0001 to 0.1 µM and 0.501 to 1 µM, respectively.

Turning to `CC(C)n1nc(-c2ccc(OCCCN3CCC[C@H]3C)cc2)c2sccc2c1=O` [Example 22, 5-Isopropyl-7-{4-[3-((R)-2-methyl-pyrrolidin-1-yl)-propoxy]-phenyl}-5H-thieno[2,3-d]pyridazin-4-one], the Ki (on human H3 receptor; in test [1]) was 0.0001 to 0.1 µM throughout.

With `CC1CCC(C)N1CCCOc1ccc(-c2nn(C(C)C)c(=O)c3ccsc23)cc1` (centres unmarked) [Example 23, 7-{4-[3-(2,5-Dimethyl-pyrrolidin-1-yl)-propoxy]-phenyl}-5-isopropyl-5H-thieno[2,3-d]pyridazin-4-one], the Ki at human H3 receptor is 0.0001 to 0.1 µM; in test [1], 0.101 to 0.5 µM.

Take `CC(C)n1nc(-c2ccc(OCCCN3CCCCC3)cc2)c2sccc2c1=O` [Example 24, 5-Isopropyl-7-[4-(3-piperidin-1-yl-propoxy)-phenyl]-5H-thieno[2,3-d]pyridazin-4-one]: the inhibition constant Ki (at human H3 receptor; in test [1]) was 0.0001 to 0.1 µM throughout.

As to `CC(C)n1nc(-c2ccc(OCCCN3CCCC(C)(C)C3)cc2)c2sccc2c1=O` [Example 25, 7-{4-[3-(3,3-Dimethyl-piperidin-1-yl)-propoxy]-phenyl}-5-isopropyl-5H-thieno[2,3-d]pyridazin-4-one], the results for the Ki (at human H3 receptor; in test [1]) were 0.101 to 0.5 µM and greater than 1 µM, respectively.

For the compound `COC[C@@H]1CCCN1CCCOc1ccc(-c2nn(C(C)C)c(=O)c3ccsc23)cc1` [Example 26, 5-Isopropyl-7-{4-[3-((S)-2-methoxymethyl-pyrrolidin-1-yl)propoxy]-phenyl}-5H-thieno[2,3-d]pyridazin-4-one], the Ki is 0.0001 to 0.1 µM on human H3 receptor and greater than 1 µM in test [1].

For `COC[C@H]1CCCN1CCCOc1ccc(-c2nn(C(C)C)c(=O)c3ccsc23)cc1` [Example 27, 5-Isopropyl-7-{4-[3-((R)-2-methoxymethyl-pyrrolidin-1-yl)-propoxy]-phenyl}-5H-thieno[2,3-d]pyridazin-4-one], the Ki (on human H3 receptor; in test [1]) was greater than 1 µM each time.

On to `CCN(CC)CCCOc1ccc(-c2nn(C(C)C)c(=O)c3ccsc23)cc1` [Example 28, 7-[4-(3-Diethylamino-propoxy)-phenyl]-5-isopropyl-5H-thieno[2,3-d]pyridazin-4-one], for which the Ki was 0.0001 to 0.1 µM at human H3 receptor and 0.101 to 0.5 µM in test [1].

`CC(C)n1nc(-c2ccc(OCCCN3CCCC3)cc2)c2sccc2c1=O` [Example 29, 5-Isopropyl-7-[4-(3-pyrrolidin-1-yl-propoxy)-phenyl]-5H-thieno[2,3-d]-pyridazin-4-one]: the Ki (at human H3 receptor; in test [1]) was 0.0001 to 0.1 µM in each case.

For `CC(C)n1nc(-c2ccc(OCCCN3CCC(N4CCCC4)CC3)cc2)c2sccc2c1=O` [Example 30, 5-Isopropyl-7-{4-[3-(4-pyrrolidin-1-yl-piperidin-1-yl)-propoxy]-phenyl}-5H-thieno[2,3-d]pyridazin-4-one], the Ki on human H3 receptor fell in the range of 0.0001 to 0.1 µM; in test [1], 0.501 to 1 µM.

As for `CC(C)n1nc(-c2ccc(OCCCN3[C@H](C)CC[C@H]3C)cc2)c2sccc2c1=O` [Example 31, 7-{4-[3-((2R,5R)-2,5-Dimethyl-pyrrolidin-1-yl)-propoxy]-phenyl}-5-isopropyl-5H-thieno[2,3-d]pyridazin-4-one], the Ki at human H3 receptor was in the range of 0.0001 to 0.1 µM; in test [1], 0.101 to 0.5 µM.

Regarding `CCCn1nc(-c2ccc(OCCCN3CCC[C@H]3C)cc2)c2sccc2c1=O` [Example 32, 7-{4-[3-((R)-2-Methyl-pyrrolidin-1-yl)-propoxy]phenyl}-5-propyl-5H-thieno[2,3-d]pyridazin-4-one], the Ki (at human H3 receptor; in test [1]) was 0.0001 to 0.1 µM each time.

As to `CCCn1nc(-c2ccc(OCCCN3[C@H](C)CC[C@H]3C)cc2)c2sccc2c1=O` [Example 33, 7-{4-[3-((2R,5R)-2,5-Dimethyl-pyrrolidin-1-yl)-propoxy]-phenyl)-5-propyl-5H-thieno[2,3-d]pyridazin-4-one], the inhibitory constant (Ki) was 0.0001 to 0.1 µM on human H3 receptor and 0.101 to 0.5 µM in test [1].

`CCCn1nc(-c2ccc(OCCCN3CCC(C)CC3)cc2)c2sccc2c1=O` [Example 34, 7-{4-[3-(4-Methyl-piperidin-1-yl)-propoxy]-phenyl}-5-propyl-5H-thieno[2,3-d]pyridazin-4-one]: the Ki (on human H3 receptor; in test [1]) was 0.0001 to 0.1 µM in each case.

Take `CCCn1nc(-c2ccc(OCCCN3CCC(N(C)C)CC3)cc2)c2sccc2c1=O` [Example 35, 7-{4-[3-(4-Dimethylamino-piperidin-1-yl)-propoxy]-phenyl}-5-propyl-5H-thieno[2,3-d]pyridazin-4-one]: the Ki (on human H3 receptor; in test [1]) was 0.101 to 0.5 µM throughout.

Turning to `CCCn1nc(-c2ccc(OCCCN3CCC[C@H]3CN3CCCC3)cc2)c2sccc2c1=O` [Example 36, 5-Propyl-7-{4-[3-((S)-2-pyrrolidin-1-ylmethyl-pyrrolidin-1-yl)-propoxy]-phenyl}-5H-thieno[2,3-d]pyridazin-4-one], the Ki at human H3 receptor is 0.101 to 0.5 µM; in test [1] it was greater than 1 µM.

With `O=c1c2ccsc2c(-c2ccc(OCCCN3CCCCC3)cc2)nn1Cc1ccc(Cl)cc1` [Example 37, 5-(4-Chloro-benzyl)-7-[4-(3-piperidin-1-yl-propoxy)-phenyl]-5H-thieno[2,3-d]pyridazin-4-one], the Ki was 0.0001 to 0.1 µM on human H3 receptor and 0.101 to 0.5 µM in test [1].

For `C[C@@H]1CCCN1CCCOc1ccc(-c2nn(Cc3ccc(Cl)cc3)c(=O)c3ccsc23)cc1` [Example 38, 5-(4-Chloro-benzyl)-7-{4-[3-((R)-2-methyl-pyrrolidin-1-yl)-propoxy]-phenyl}-5H-thieno[2,3-d]pyridazin-4-one], the Ki (at human H3 receptor; in test [1]) was 0.0001 to 0.1 µM each time.

On to `Cc1cc(-c2ccc(OCCCN3CCCCC3)cc2)nn(C)c1=O` [Example 39, 2,4-Dimethyl-6-[4-(3-piperidin-1-yl-propoxy)-phenyl]-2H-pyridazin-3-one], for which the Ki (at human H3 receptor; in test [1]) was 0.0001 to 0.1 µM throughout.

Turning to `Cc1cc(-c2ccc(OCCCN3CCC[C@H]3C)cc2)nn(C)c1=O` [Example 40, 2,4-Dimethyl-6-{4-[3-((R)-2-methyl-pyrrolidin-1-yl)-propoxy]-phenyl}-2H-pyridazin-3-one], the Ki (on human H3 receptor; in test [1]) was 0.0001 to 0.1 µM throughout.

Take `Cc1cc(-c2ccc(OCCCN3CCC[C@H]3C)cc2)nn(C(C)C)c1=O` [Example 41, 2-Isopropyl-4-methyl-6-{4-[3-((R)-2-methyl-pyrrolidin-1-yl)-propoxy]-phenyl}-2H-pyridazin-3-one]: the Ki (at human H3 receptor; in test [1]) was 0.0001 to 0.1 µM each time.

For the compound `Cc1cc(-c2ccc(OCCCN3CCCCC3)cc2)nn(C(C)C)c1=O` [Example 42, 2-Isopropyl-4-methyl-6-[4-(3-piperidin-1-yl-propoxy)-phenyl]-2H-pyridazin-3-one], the Ki (on human H3 receptor; in test [1]) was 0.101 to 0.5 µM in each case.

Regarding `Cc1cc(-c2ccc(OCCCN3CCC[C@H]3C)cc2)nn(Cc2ccccc2)c1=O` [Example 43, 2-Benzyl-4-methyl-6-{4-[3-((R)-2-methyl-pyrrolidin-1-yl)-propoxy]-phenyl}-2H-pyridazin-3-one], the Ki (at human H3 receptor; in test [1]) was 0.0001 to 0.1 µM each time.

On to `Cc1cc(-c2ccc(OCCCN3CCCCC3)cc2)nn(Cc2ccccc2)c1=O` [Example 44, 2-Benzyl-4-methyl-6-[4-(3-piperidin-1-yl-propoxy)-phenyl]-2H-pyridazin-3-one], for which the Ki was 0.0001 to 0.1 µM at human H3 receptor and 0.101 to 0.5 µM in test [1].

In the case of `C[C@@H]1CCCN1CCCOc1ccc(-c2cc(Cc3ccccc3)c(=O)n(C)n2)cc1` [Example 45, 4-Benzyl-2-methyl-6-{4-[3-((R)-2-methyl-pyrrolidin-1-yl)-propoxy]-phenyl}-2H-pyridazin-3-one], the Ki (on human H3 receptor; in test [1]) was 0.0001 to 0.1 µM in each case.
